Reference: BindingDB's records for patent US20250313563 (The Broad Institute, 2025)
“And” between values parts separate entries of the source, which are not always exact repeats. Equal entries are not always repeated.

Legend:
[1] = target: Glycogen synthase kinase-3 alpha (Homo sapiens, UniProt P49840); assay: TR-FRET Assay
How it was run: (§1)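 TR-FRET readout: streptavidin-d2 (40 nM in added detection mix) plus Tb-anti-pSer641 Ab (2 nM in mix). Steps were 30 min compound preincubation, kinase reaction, then EDTA stop.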

[2] = target: Glycogen synthase kinase-3 beta (Homo sapiens, UniProt P49841); assay: TR-FRET Assay
How it was run: as §1

Glycogen synthase kinase-3 alpha, sequence (P49840 whole entry): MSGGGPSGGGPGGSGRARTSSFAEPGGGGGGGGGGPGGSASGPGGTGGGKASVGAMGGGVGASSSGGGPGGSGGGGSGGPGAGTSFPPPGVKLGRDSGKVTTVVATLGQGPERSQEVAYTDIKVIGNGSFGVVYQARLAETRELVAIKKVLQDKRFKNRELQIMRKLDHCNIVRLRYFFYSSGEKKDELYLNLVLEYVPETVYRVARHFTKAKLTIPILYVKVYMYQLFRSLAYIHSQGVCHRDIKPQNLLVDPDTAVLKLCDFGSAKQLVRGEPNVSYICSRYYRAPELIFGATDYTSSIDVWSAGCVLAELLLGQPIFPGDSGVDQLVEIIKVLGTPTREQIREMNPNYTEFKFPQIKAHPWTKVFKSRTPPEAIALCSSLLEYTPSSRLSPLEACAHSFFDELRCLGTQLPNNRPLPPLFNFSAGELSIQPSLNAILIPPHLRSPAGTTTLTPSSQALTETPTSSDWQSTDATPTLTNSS
Glycogen synthase kinase-3 beta, sequence (P49841 whole entry): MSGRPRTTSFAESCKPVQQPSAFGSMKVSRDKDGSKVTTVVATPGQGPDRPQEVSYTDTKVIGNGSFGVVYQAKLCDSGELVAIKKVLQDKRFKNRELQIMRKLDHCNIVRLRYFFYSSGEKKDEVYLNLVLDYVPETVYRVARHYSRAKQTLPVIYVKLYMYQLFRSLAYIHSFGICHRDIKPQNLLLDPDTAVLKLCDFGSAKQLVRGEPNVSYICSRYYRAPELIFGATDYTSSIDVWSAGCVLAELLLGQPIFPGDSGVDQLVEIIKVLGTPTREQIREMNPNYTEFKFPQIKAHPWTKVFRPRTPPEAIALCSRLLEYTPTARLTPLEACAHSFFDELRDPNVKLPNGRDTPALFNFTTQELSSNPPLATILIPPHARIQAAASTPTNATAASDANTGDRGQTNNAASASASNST

SMILES | IC50 [1] | IC50 [2]
CC[C@@]1(c2cccc(-c3ccncc3C)c2)C2=CN=NC2NC2=C1C(=O)N[C@]1(CCCOC1)C2 (stereo not given in full) [US20250313563, Compound 947910] | < 100 nM | < 100 nM
CC[C@]1(c2cccc(-c3ccncc3C)c2)C2=CN=NC2NC2=C1C(=O)N[C@]1(CCCOC1)C2 (stereo not given in full) [US20250313563, Compound 947911] | < 100 nM | < 100 nM
CC[C@]1(c2cccc(-c3ccncc3C)c2)C2=CN=NC2NC2=C1C(=O)N[C@@]1(CCCOC1)C2 (stereo not given in full) [US20250313563, Compound 947912] | 100 to 1000 nM | 1000 to 5000 nM
CC[C@@]1(c2cccc(-c3ccnn3C)c2)C2=CN=NC2NC2=C1C(=O)N[C@@]1(CCOC1)C2 (stereo not given in full) [US20250313563, Compound 948015] | < 100 nM | < 100 nM
CC[C@]1(c2cccc(-c3ccnn3C)c2)C2=CN=NC2NC2=C1C(=O)N[C@@]1(CCOC1)C2 (stereo not given in full) [US20250313563, Compound 948017] | < 100 nM | < 100 nM
CC[C@@]1(c2cccc(-c3ccnn3C)c2)C2=CN=NC2NC2=C1C(=O)NC1(CCCC1)C2 (stereo not given in full) [US20250313563, Compound 948018] | < 100 nM | < 100 nM
CC[C@]1(c2cccc(-c3ccnn3C)c2)C2=CN=NC2NC2=C1C(=O)NC1(CCCC1)C2 (stereo not given in full) [US20250313563, Compound 948019] | 1000 to 5000 nM | > 5000 nM
CC[C@]1(c2cccc(-c3ccncc3Cl)c2)C2=CN=NC2NC2=C1C(=O)NC(C)(C)C2 (stereo not given in full) [US20250313563, Compound 948020] | 100 to 1000 nM | 100 to 1000 nM
CC[C@@]1(c2cccc(-c3ccncc3C)c2)C2=CN=NC2NC2=C1C(=O)NC1(CCCC1)C2 (stereo not given in full) [US20250313563, Compound 948022] | < 100 nM | < 100 nM and 100 to 1000 nM
CC1(C)CC(=O)C2=C(C1)NC1=C(CN=N1)[C@]21COC2(CN(C(=O)Cc3ccccc3)C2)C1 [US20250313563, Compound 948036] | 100 to 1000 nM | 100 to 1000 nM
CC1(C)CC(=O)C2=C(C1)NC1=C(CN=N1)[C@@]21COC2(CN(C(=O)Cc3ccccc3)C2)C1 [US20250313563, Compound 948037] | < 100 nM | < 100 nM
Cc1ccc(C(=O)N2CC3(C2)C[C@@]2(CO3)C3=C(N=NC3)NC3=C2C(=O)CC(C)(C)C3)cc1C [US20250313563, Compound 948039] | 100 to 1000 nM | 1000 to 5000 nM
CC(=O)N1CCC2(C1)CC1(CO2)C2=C(N=NC2)NC2=C1C(=O)CC(C)(C)C2 (stereo not given) [US20250313563, Compound 948040] | < 100 nM | 100 to 1000 nM
CCC1(c2cccc(C(F)(F)F)c2)C2=CN=NC2NC2=C1C(=O)N(c1cccc(C)c1)CC2 (stereo not given) [US20250313563, Compound 948052] | < 100 nM | 100 to 1000 nM
CC[C@]1(c2cccc([C@H](C)c3ncccn3)c2)C2=CN=NC2NC2=C1C(=O)CC(C)(C)C2 (stereo not given in full) [US20250313563, Compound 948057] | 100 to 1000 nM | 1000 to 5000 nM
CC[C@]1(c2cccc([C@@H](C)c3ncccn3)c2)C2=CN=NC2NC2=C1C(=O)CC(C)(C)C2 (stereo not given in full) [US20250313563, Compound 948058] | < 100 nM and 100 to 1000 nM | < 100 nM and 1000 to 5000 nM
CC[C@@]1(c2cccc([C@H](C)c3ncccn3)c2)C2=CN=NC2NC2=C1C(=O)CC(C)(C)C2 (stereo not given in full) [US20250313563, Compound 948060] | < 100 nM and 100 to 1000 nM | < 100 nM and 1000 to 5000 nM
CC[C@@]1(c2cccc([C@@H](C)c3ncccn3)c2)C2=CN=NC2NC2=C1C(=O)CC(C)(C)C2 (stereo not given in full) [US20250313563, Compound 948061] | 100 to 1000 nM | 1000 to 5000 nM
CCC1(c2cccc(-c3ccnc(C)n3)c2)C2=CN=NC2NC2=C1C(=O)CC(C)(C)C2 (stereo not given) [US20250313563, Compound 948088] | 100 to 1000 nM | 1000 to 5000 nM
CCC1(c2cccc(-c3cc(C)ncn3)c2)C2=CN=NC2NC2=C1C(=O)CC(C)(C)C2 (stereo not given) [US20250313563, Compound 948089] | < 100 nM | 100 to 1000 nM
CCC1(c2cccc(-c3ncnc(C)c3C)c2)C2=CN=NC2NC2=C1C(=O)CC(C)(C)C2 (stereo not given) [US20250313563, Compound 948090] | < 100 nM | 100 to 1000 nM
CCC1(c2cccc(-c3nc(C)ncc3C)c2)C2=CN=NC2NC2=C1C(=O)CC(C)(C)C2 (stereo not given) [US20250313563, Compound 948091] | < 100 nM | 100 to 1000 nM
CCC1(c2cccc(-c3ccnc(OC)n3)c2)C2=CN=NC2NC2=C1C(=O)CC(C)(C)C2 (stereo not given) [US20250313563, Compound 948092] | < 100 nM | < 100 nM

SMILES | IC50 [1] | IC50 [2]
CCC1(c2cccc(-c3cc(OC)ncn3)c2)C2=CN=NC2NC2=C1C(=O)CC(C)(C)C2 (stereo not given) [US20250313563, Compound 948093] | < 100 nM | 100 to 1000 nM
CC1(C)CC(=O)C2=C(C1)NC1=C(CN=N1)C21CCN(S(=O)(=O)c2ccc(F)c(Cl)c2)CC1 [US20250313563, Compound 948117] | < 100 nM | < 100 nM
CC1(C)CC(=O)C2=C(C1)NC1=C(CN=N1)C21CCN(S(=O)(=O)c2cccc(Cl)c2F)CC1 [US20250313563, Compound 948118] | < 100 nM | < 100 nM and 100 to 1000 nM
CC1(C)CC(=O)C2=C(C1)NC1=C(CN=N1)C21CCN(S(=O)(=O)c2ccc(F)c(F)c2)CC1 [US20250313563, Compound 948119] | < 100 nM | < 100 nM
CC1(C)CC(=O)C2=C(C1)NC1=C(CN=N1)C21CCN(S(=O)(=O)c2cnc3cccnn23)CC1 [US20250313563, Compound 948120] | < 100 nM and 100 to 1000 nM | < 100 nM and 1000 to 5000 nM
CC1(C)CC(=O)C2=C(C1)NC1=C(CN=N1)C21CCN(S(=O)(=O)c2cc(F)ccc2F)CC1 [US20250313563, Compound 948121] | < 100 nM and 100 to 1000 nM | < 100 nM and 100 to 1000 nM
CC1(C)CC(=O)C2=C(C1)NC1=C(CN=N1)C21CCN(S(=O)(=O)c2cc(Cl)ccc2Cl)CC1 [US20250313563, Compound 948122] | < 100 nM | 100 to 1000 nM
CC1(C)CC(=O)C2=C(C1)NC1=C(CN=N1)C21CCN(S(=O)(=O)c2cnn(CC(F)(F)F)c2)CC1 [US20250313563, Compound 948123] | < 100 nM and 100 to 1000 nM | < 100 nM and 100 to 1000 nM
CC[C@]1(c2cccc(-c3ccnc(C)c3)c2)C2=CN=NC2NC2=C1C(=O)N[C@@]1(CCOC1)C2 (stereo not given in full) [US20250313563, Compound 948140] | < 100 nM | 100 to 1000 nM
CC[C@]1(c2cccc(-c3ccnc(C)c3)c2)C2=CN=NC2NC2=C1C(=O)N[C@]1(CCOC1)C2 (stereo not given in full) [US20250313563, Compound 948141] | 1000 to 5000 nM | > 5000 nM
CC[C@@]1(c2cccc(C3=C4CC=C(C)N=C4N=CC3)c2)C2=CN=NC2NC2=C1C(=O)NC(C)(C)C2 (stereo not given in full) [US20250313563, Compound 948143] | < 100 nM | 100 to 1000 nM
CC[C@]1(c2cccc(-c3ccnc(C)c3)c2)C2=CN=NC2NC2=C1C(=O)N[C@@]1(CCCOC1)C2 (stereo not given in full) [US20250313563, Compound 948144] | < 100 nM | 100 to 1000 nM
CC[C@]1(c2cccc(-c3ccnc(C)c3)c2)C2=CN=NC2NC2=C1C(=O)N[C@]1(CCCOC1)C2 (stereo not given in full) [US20250313563, Compound 948146] | 1000 to 5000 nM | > 5000 nM
CC[C@@]1(c2cccc(-c3ccnc(C)c3)c2)C2=CN=NC2NC2=C1C(=O)N[C@@]1(CCOC1)C2 (stereo not given in full) [US20250313563, Compound 948149] | < 100 nM | 100 to 1000 nM
CC[C@@]1(c2cccc(-c3c(F)cncc3OC)c2)C2=CN=NC2NC2=C1C(=O)NC(C)(C)C2 (stereo not given in full) [US20250313563, Compound 948150] | < 100 nM | < 100 nM and 100 to 1000 nM
CC[C@]1(c2cccc(C3=C4CC=C(C)N=C4N=CC3)c2)C2=CN=NC2NC2=C1C(=O)NC(C)(C)C2 (stereo not given in full) [US20250313563, Compound 948151] | 100 to 1000 nM | > 5000 nM
CC1(C)CC(=O)C2=C(C1)NC1=C(CN=N1)[C@]21COC2(CN(C(=O)C(F)(F)F)C2)C1 [US20250313563, Compound 948156] | < 100 nM | 100 to 1000 nM
CCC1(c2cccc(N(C)c3ncccn3)c2)C2=C(CC(C)(C)NC2=O)NC2N=NC(C)=C21 (stereo not given) [US20250313563, Compound 948175] | < 100 nM | < 100 nM
CCC1(c2cccc(N(C)c3ncccn3)c2)C2=C(CC(C)(C)NC2=O)NC2N=NC(C(F)(F)F)=C21 (stereo not given) [US20250313563, Compound 948176] | < 100 nM | < 100 nM
CCC1(c2cccc(S(=O)(=O)CC3CC3)c2)C2=CN=NC2NC2=C1C(=O)NC(C)(C)C2 (stereo not given) [US20250313563, Compound 948177] | < 100 nM | 100 to 1000 nM
CCC1(c2cccc(S(=O)(=O)CC3CC3)c2)C2=C(CC(C)(C)NC2=O)NC2N=NC(C)=C21 (stereo not given) [US20250313563, Compound 948178] | < 100 nM | < 100 nM
CCC1(c2cccc(S(=O)(=O)CC3CC3)c2)C2=C(CC(C)(C)NC2=O)NC2=C1C(C(F)(F)F)N=N2 (stereo not given) [US20250313563, Compound 948179] | < 100 nM | < 100 nM
